# Reference: ChEMBL document CHEMBL1201862, “PubChem BioAssay data set” (2004)
#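 Briefly, cells in 96-well plates were exposed to five compound concentrations for 48 h, and endpoints were estimated by linear interpolation. GI50 = concentration required for 50% inhibition of growth.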 Active and inactive are the calls of the source. Rule as the data show it: active = GI50 up to about 1.1 µM and inactive = higher.
# Columns and labels:
# Assay in all cases: growth of human tumour cells (NCI), 48 h
# [1] = system: 786-0
# [2] = system: CAKI-1
# [3] = system: CCRF-CEM
# [4] = system: DU-145
# [5] = system: HCC 2998
# [6] = system: HOP-62
# [7] = system: HT-29
# [8] = system: M14
# [9] = system: OVCAR-8
# [10] = system: PC-3
# [11] = system: RPMI-8226
# [12] = system: RXF 393
# [13] = system: SF-268
# [14] = system: SK-MEL-5
# [15] = system: SK-OV-3
# [16] = system: SN12C
# [17] = system: SNB-19
# [18] = system: SW-620
# [19] = system: UACC-62
# [20] = system: UO-31
Compound,GI50 [1],GI50 [2],GI50 [3],GI50 [4],GI50 [5],GI50 [6],GI50 [7],GI50 [8],GI50 [9],GI50 [10],GI50 [11],GI50 [12],GI50 [13],GI50 [14],GI50 [15],GI50 [16],GI50 [17],GI50 [18],GI50 [19],GI50 [20]
Cc1ccc(Nc2n[nH]c(NS(=O)(=O)c3cc(C)c(Cl)cc3S)n2)cc1,> 100 µM (inactive),> 100 µM (inactive),> 100 µM (inactive),> 100 µM (inactive),> 100 µM (inactive),> 100 µM (inactive),> 100 µM (inactive),> 100 µM (inactive),> 100 µM (inactive),> 100 µM (inactive),> 100 µM (inactive),> 100 µM (inactive),> 100 µM (inactive),> 100 µM (inactive),> 100 µM (inactive),> 100 µM (inactive),> 100 µM (inactive),> 100 µM (inactive),> 100 µM (inactive),> 100 µM (inactive)
O=S1(=O)CCN(c2ccccc2CC(c2c[nH]c3ccccc23)c2c[nH]c3ccccc23)CC1,6.03 µM (inactive),9.16 µM (inactive),1.99 µM (inactive),7.43 µM (inactive),3.64 µM (inactive),13.6 µM (inactive),4.59 µM (inactive),4.35 µM (inactive),8.55 µM (inactive),3.64 µM (inactive),1.75 µM (inactive),7.03 µM (inactive),5.19 µM (inactive),6.61 µM (inactive),8.67 µM (inactive),5.02 µM (inactive),12.3 µM (inactive),3.92 µM (inactive),8.99 µM (inactive),7.41 µM (inactive)
C=CC(=O)N1C/C(=C\c2ccc([N+](=O)[O-])cc2)C(=O)/C(=C/c2ccc([N+](=O)[O-])cc2)C1,< 0.0203 µM (active),0.128 µM (active),0.0565 µM (active),0.621 µM (active),0.161 µM (active),0.222 µM (active),< 0.0176 µM (active),0.19 µM (active),< 0.0391 µM (active),0.0698 µM (active),0.0193 µM (active),0.142 µM (active),< 0.0403 µM (active),0.719 µM (active),1.52 µM (inactive),0.195 µM (active),1.16 µM (inactive),0.0304 µM (active),0.21 µM (active),0.147 µM (active)
Nc1ccn(C2OC(COC(=O)C34CC5CC(CC(C5)C3)C4)C(O)C2O)c(=O)n1 (stereo not given),> 100 µM (inactive),> 100 µM (inactive),0.101 µM (active),> 100 µM (inactive),> 69.3 µM (inactive),0.973 µM (active),> 57.5 µM (inactive),0.817 µM (active),24.2 µM (inactive),> 100 µM (inactive),> 100 µM (inactive),> 100 µM (inactive),> 50.5 µM (inactive),> 100 µM (inactive),> 79.8 µM (inactive),> 100 µM (inactive),> 79.8 µM (inactive),> 100 µM (inactive),> 100 µM (inactive),> 40.5 µM (inactive)
O=C(O)c1cccc(CN2CCCCC2)c1,> 100 µM (inactive),> 100 µM (inactive),> 100 µM (inactive),> 100 µM (inactive),> 100 µM (inactive),> 100 µM (inactive),> 100 µM (inactive),> 100 µM (inactive),> 100 µM (inactive),> 100 µM (inactive),> 100 µM (inactive),> 100 µM (inactive),> 100 µM (inactive),> 100 µM (inactive),> 100 µM (inactive),> 100 µM (inactive),> 100 µM (inactive),> 100 µM (inactive),> 100 µM (inactive),> 100 µM (inactive)
O=c1[nH]cc(/C=N\Nc2ccccc2)c(=O)[nH]1,> 100 µM (inactive),> 100 µM (inactive),> 100 µM (inactive),> 100 µM (inactive),> 100 µM (inactive),> 10 µM (inactive),49.2 µM (inactive),> 100 µM (inactive),> 100 µM (inactive),> 100 µM (inactive),> 100 µM (inactive),> 100 µM (inactive),> 100 µM (inactive),11.6 µM (inactive),> 100 µM (inactive),> 100 µM (inactive),> 100 µM (inactive),> 100 µM (inactive),66.7 µM (inactive),> 100 µM (inactive)
COc1ccc2[nH]c3c(C)c4ccnc(NCCCN(C)CCCNc5ccc6ncn7c8ccccc8c(=O)c5c67)c4c(C)c3c2c1,0.0632 µM (active),0.242 µM (active),0.0394 µM (active),0.796 µM (active),0.0578 µM (active),0.275 µM (active),0.0141 µM (active),0.998 µM (active),0.348 µM (active),0.752 µM (active),0.13 µM (active),0.256 µM (active),0.352 µM (active),0.573 µM (active),2.29 µM (inactive),0.0621 µM (active),0.752 µM (active),0.0418 µM (active),1.71 µM (inactive),0.361 µM (active)
Cc1ccc(-n2cnc3c(N)nc(N)nc32)cc1,> 100 µM (inactive),> 100 µM (inactive),43.1 µM (inactive),> 100 µM (inactive),76.2 µM (inactive),> 100 µM (inactive),> 100 µM (inactive),> 100 µM (inactive),> 100 µM (inactive),> 100 µM (inactive),> 100 µM (inactive),43.6 µM (inactive),> 100 µM (inactive),> 100 µM (inactive),> 100 µM (inactive),> 100 µM (inactive),> 100 µM (inactive),> 100 µM (inactive),84.1 µM (inactive),58.9 µM (inactive)
c1cc2n(n1)CCN2,1120 µM (inactive),740 µM (inactive),186 µM (inactive),3320 µM (inactive),1690 µM (inactive),3720 µM (inactive),3130 µM (inactive),486 µM (inactive),875 µM (inactive),1160 µM (inactive),1890 µM (inactive),1390 µM (inactive),1550 µM (inactive),847 µM (inactive),3040 µM (inactive),1240 µM (inactive),4030 µM (inactive),3430 µM (inactive),374 µM (inactive),1320 µM (inactive)
Cc1ccc([N+](=O)[O-])cc1S(=O)(=O)Nc1ccc(C(=O)/C=C/c2ccccc2)cc1,16.7 µM (inactive),22.2 µM (inactive),20 µM (inactive),15.8 µM (inactive),17.7 µM (inactive),17.7 µM (inactive),25.4 µM (inactive),20 µM (inactive),23.2 µM (inactive),15.6 µM (inactive),11.5 µM (inactive),11.4 µM (inactive),24.3 µM (inactive),16.3 µM (inactive),31.3 µM (inactive),19.8 µM (inactive),18.6 µM (inactive),24.7 µM (inactive),13.2 µM (inactive),18.4 µM (inactive)
O=C(NO)c1cccc(OCc2ccc(Br)cc2)c1,2.92 µM (inactive),3.11 µM (inactive),1.91 µM (inactive),3.13 µM (inactive),7.52 µM (inactive),4.97 µM (inactive),6.98 µM (inactive),2.79 µM (inactive),1.32 µM (inactive),5.89 µM (inactive),2.74 µM (inactive),3.52 µM (inactive),4.03 µM (inactive),3.98 µM (inactive),5.21 µM (inactive),2.79 µM (inactive),9.35 µM (inactive),6.55 µM (inactive),4.15 µM (inactive),2.77 µM (inactive)
Cc1n[nH]c(C(F)(F)F)c1/N=N/N(C)C,1.24 µM (inactive),1.64 µM (inactive),2.63 µM (inactive),7.69 µM (inactive),14 µM (inactive),10 µM (inactive),4.98 µM (inactive),14.7 µM (inactive),11.1 µM (inactive),11.1 µM (inactive),2.14 µM (inactive),13 µM (inactive),11.4 µM (inactive),> 100 µM (inactive),12.5 µM (inactive),12.5 µM (inactive),15.1 µM (inactive),> 100 µM (inactive),6.81 µM (inactive),1.61 µM (inactive)
CC1=C(O)C(=O)C=C2C1=CC=C1[C@@]2(C)CC[C@@]2(C)C3C[C@@H](C)C(=O)[C@@H](O)[C@]3(C)CC[C@]12C (stereo not given in full),0.946 µM (active),1.47 µM (inactive),0.33 µM (active),1.79 µM (inactive),2.95 µM (inactive),6.38 µM (inactive),1.97 µM (inactive),1.64 µM (inactive),2.39 µM (inactive),2.02 µM (inactive),1.25 µM (inactive),1.9 µM (inactive),3.38 µM (inactive),3.35 µM (inactive),9.04 µM (inactive),2.08 µM (inactive),4.15 µM (inactive),1.24 µM (inactive),1.79 µM (inactive),1.92 µM (inactive)
N#Cc1c(N)nc2c(C#N)c(N)cc3c2c1Oc1ccccc1-3,> 100 µM (inactive),> 100 µM (inactive),> 100 µM (inactive),> 100 µM (inactive),> 100 µM (inactive),> 100 µM (inactive),> 100 µM (inactive),> 100 µM (inactive),> 100 µM (inactive),> 100 µM (inactive),> 100 µM (inactive),> 100 µM (inactive),> 100 µM (inactive),> 100 µM (inactive),> 100 µM (inactive),> 100 µM (inactive),> 100 µM (inactive),> 100 µM (inactive),> 100 µM (inactive),> 100 µM (inactive)
